Results reported in US12527519B2, “Neurostimulation devices and methods” (Cardionomix, Inc., priority 2016, dated 2026).

Tested on: normal, non-HF ovine model
Test: Right ventricle vs left ventricle contractility after a change, pressure max(dP/dt) as surrogate, heartbeat-by-heartbeat correlation
Format: in vivo
Details: max(dP/dt) as surrogate for contractility, calcium at 5 mL
Text: The correlation was a heartbeat-by-heartbeat analysis. Pressure measurements, taken by a Millar catheter comprising a MEMS pressure sensor, in units of max(dP/dt) was used as a surrogate for contractility.
The first change, a dobutamine injection, provided a very high contractility increase greater than 500%. The average correlation between right ventricle contractility and left ventricle contractility was very good at 0.91, where 1.00 is a perfect correlation. Accordingly, if a subject is given a dobutamine injection, measuring changes to right ventricle contractility can provide accurate information about changes to left ventricle contractility. The first change was repeated three times.
The second change, calcium injection at 5 mL, provided a contractility increase of about 20%. […] The average correlation between right ventricle contractility and left ventricle contractility using a Millar (MEMS) sensor on a catheter was very good at 0.91. The average correlation between right ventricle contractility and left ventricle contractility using a fluid-filled lumen of a Swan-Ganz catheter in communication with an external pressure sensor was also very good at 0.87. […]

calcium [Calcium Injection]
Contractility % Increase: ~20%
Contractility % Increase (listed as calcium injection): about 20%
